Reference: article PMC11249646, “Small-Molecule Disruptors of the Interaction between Calcium- and Integrin-Binding Protein 1 and Integrin αIIbβ3 as Novel Antiplatelet Agents” (ACS Pharmacology & Translational Science, 2024)
Read-outs that look alike come from different tables or passages of the source.

Target: T1, CIB1 and αIIb interaction (CIB1-GST : F-αIIb peptide) (Homo sapiens, UniProt Q99828)
T1 construct: made in house; host or cells: BL-21 plus RIL cells (E. coli)
T1 sequence (Q99828 1-191): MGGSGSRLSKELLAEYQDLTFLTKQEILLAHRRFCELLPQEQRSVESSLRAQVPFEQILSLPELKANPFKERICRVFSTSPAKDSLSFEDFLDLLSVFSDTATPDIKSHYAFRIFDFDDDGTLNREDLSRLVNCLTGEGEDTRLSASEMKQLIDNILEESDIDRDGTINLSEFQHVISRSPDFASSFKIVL
Experiment: FP assay, 1536-well qHTS format (primary and confirmatory screen)
Format: binding
Conditions: for Efficacy (%): negative = inhibition; for Curve Class: negative sign = inhibitory curve; for IC50: read-out: IC50

[1] = qHTS primary screen hits, Table S2
[2] = qHTS primary screen hits, Table S2, several classes where COUNT > 1
[3] = qHTS primary screen of LOPAC/NPACT libraries

Efficacy (%) [3] | Curve Class [3] | IC50 [3] | Compound | Efficacy (%) [1] | Curve Class [2] | IC50 [1] | Curve Class [1]
 |  |  | CC(=O)NCc1ccc(-c2csc(Nc3cc(C)cc(C)c3)n2)o1.O=C(O)C(F)(F)F [NCGC00314997-03] | -84% | -2.4 | 50.1 µM | 
 |  |  | CCCc1ccc(-c2csc(NC(=O)c3ccncc3NS(=O)(=O)c3ccc(C)cc3)n2)cc1.O=C(O)C(F)(F)F [NCGC00318955-01] | -35% | -2.4 | 50.1 µM | 
 |  |  | COc1cccc(-c2csc(NC(=O)c3ccncc3NS(=O)(=O)c3ccc(C)cc3)n2)c1.O=C(O)C(F)(F)F [NCGC00319006-01] | -58% | -2.2 | 47.4 µM | 
 |  |  | COc1ccc(-c2csc(NC(=O)c3ccncc3NS(=O)(=O)c3ccc(C)cc3)n2)cc1.O=C(O)C(F)(F)F [NCGC00319009-01] | -53% | -2.4 | 56.2 µM | 
 |  |  | COc1cccc2c1C(=O)c1c(O)c3c(c(O)c1C2=O)C[C@@](O)(C(=O)CO)CC3OC1CC(N2CCOC(OC)C2)C(O)C(C)O1 (stereo partly drawn) [NCGC00319019-01] | -40% |  | 10 µM | -1.4
 |  |  | Cc1cc(SCc2sc(-c3ccc(Cl)cc3)nc2C)ccc1OCC(=O)O.O=C(O)C(F)(F)F [NCGC00319056-01] | -32% |  | 56.2 µM | -2.4
 |  |  | Cc1ccc(S(=O)(=O)Nc2cnccc2C(=O)Nc2cccc3ccccc23)cc1.O=C(O)C(F)(F)F [NCGC00343900-01] | -32% |  | 50.1 µM | -2.4
 |  |  | Cc1ccc(S(=O)(=O)Nc2cnccc2C(=O)Nc2nc(C(=O)O)cs2)cc1.O=C(O)C(F)(F)F [NCGC00343903-01] | -36% | -2.4 | 50.1 µM | 
 |  |  | O=C(O)C(F)(F)F.O=S(=O)(Nc1ccc(C2CCNCC2)cc1)c1ccc(NCc2ccc(Br)cc2O)cc1 [NCGC00343916-01] | -31% | -2.4 | 56.2 µM | 
 |  |  | COc1cccc(CNc2ccc(S(=O)(=O)Nc3ccc(C4CCNCC4)cc3)cc2)c1O.O=C(O)C(F)(F)F [NCGC00343917-01] | -46% |  | 50.1 µM | -2.4
-25% | -2.4 | 63.1 µM | COc1cc2c(cc1OC)-c1[nH]nc(Nc3cccc(F)c3)c1C2 [NCGC00343986-02] |  |  |  | 
 |  |  | O=C(Nc1nc(-c2ccccc2)cs1)c1ccncc1NS(=O)(=O)c1ccc(Cl)cc1.O=C(O)C(F)(F)F [NCGC00344892-01] | -48% |  | 53.2 µM | 
 |  |  | O=C(Nc1nc(-c2ccccc2)cs1)c1ccncc1NS(=O)(=O)c1ccccc1.O=C(O)C(F)(F)F [NCGC00344903-01] | -44% | -2.2 | 44.7 µM | 
 |  |  | Cc1cccc(S(=O)(=O)Nc2cnccc2C(=O)Nc2nc(-c3ccccc3)cs2)c1.O=C(O)C(F)(F)F [NCGC00344904-01] | -43% | -2.4 | 56.2 µM | 
 |  |  | COc1cccc(S(=O)(=O)Nc2cnccc2C(=O)Nc2nc(-c3ccccc3)cs2)c1.O=C(O)C(F)(F)F [NCGC00344906-01] | -33% | -2.2 | 50.1 µM | 
 |  |  | O=C(Nc1nc(-c2ccccc2)cs1)c1ccncc1NS(=O)(=O)c1ccc(F)cc1.O=C(O)C(F)(F)F [NCGC00344931-02] | -38% |  | 53.2 µM | 
 |  |  | O=C(Nc1nc(-c2ccccc2)cs1)c1ccncc1NS(=O)(=O)c1ccc(F)c(F)c1.O=C(O)C(F)(F)F [NCGC00344933-01] | -34% | -3 | 79.4 µM | 
 |  |  | N#Cc1ccc(S(=O)(=O)Nc2cnccc2C(=O)Nc2nc(-c3ccccc3)cs2)cc1.O=C(O)C(F)(F)F [NCGC00344937-01] | -38% |  | 79.4 µM | -2.4
 |  |  | O=C(Nc1nc(-c2ccccc2)cs1)c1ccncc1NS(=O)(=O)c1ccccc1Cl.O=C(O)C(F)(F)F [NCGC00344943-02] | -50% |  | 64.8 µM | 
